Assay results: PubChem BioAssay (NCI)
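Abbreviation: GI50, concentration required for 50% inhibition of growth. At the TGI there is no net growth.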

How the values were obtained:
Experiment in all cases: growth of human tumour cells (NCI), 384-well format
DU-145 prostate = system: DU-145 prostate
HS 578T breast = system: HS 578T breast
SF-539 CNS = system: SF-539 CNS
HCT-15 colon = system: HCT-15 colon
T-47D breast = system: T-47D breast
HOP-62 NSCLC = system: HOP-62 NSCLC
SW-620 colon = system: SW-620 colon
COLO 205 colon = system: COLO 205 colon
BT-549 breast = system: BT-549 breast
CCRF-CEM leukemia = system: CCRF-CEM leukemia
NCI-H23 lung = system: NCI-H23 lung
NCI-H322M lung = system: NCI-H322M lung
IGROV1 ovarian = system: IGROV1 ovarian
RPMI-8226 leukemia = system: RPMI-8226 leukemia
SK-OV-3 ovarian = system: SK-OV-3 ovarian
UO-31 renal = system: UO-31 renal
LOX IMVI melanoma = system: LOX IMVI melanoma
MCF7 breast = system: MCF7 breast
UACC-257 melanoma = system: UACC-257 melanoma
SK-MEL-5 melanoma = system: SK-MEL-5 melanoma
KM12 colon = system: KM12 colon
RXF 393 renal = system: RXF 393 renal
SF-295 CNS = system: SF-295 CNS
MDA-MB-231 breast = system: MDA-MB-231 breast
SNB-19 CNS = system: SNB-19 CNS
OVCAR-4 ovarian = system: OVCAR-4 ovarian
PC-3 prostate = system: PC-3 prostate
OVCAR-5 ovarian = system: OVCAR-5 ovarian
MDA-MB-435 melanoma = system: MDA-MB-435 melanoma
NCI/ADR-RES ovarian = system: NCI/ADR-RES ovarian
786-0 renal = system: 786-0 renal
UACC-62 melanoma = system: UACC-62 melanoma
NCI-H522 lung = system: NCI-H522 lung
A549 NSCLC = system: A549 NSCLC
SNB-75 CNS = system: SNB-75 CNS
SN12C renal = system: SN12C renal
HL-60(TB) leukemia = system: HL-60(TB) leukemia
EKVX NSCLC = system: EKVX NSCLC
U251 glioblastoma = system: U251 glioblastoma
MALME-3M melanoma = system: MALME-3M melanoma
SK-MEL-28 melanoma = system: SK-MEL-28 melanoma
MOLT-4 leukemia = system: MOLT-4 leukemia
NCI-H460 NSCLC = system: NCI-H460 NSCLC
TK-10 renal = system: TK-10 renal
HCC-2998 colon = system: HCC-2998 colon
K-562 leukemia = system: K-562 leukemia
HOP-92 NSCLC = system: HOP-92 NSCLC
OVCAR-8 ovarian = system: OVCAR-8 ovarian
ACHN renal = system: ACHN renal
SF-268 CNS = system: SF-268 CNS
SR leukemia = system: SR leukemia
M14 melanoma = system: M14 melanoma
CAKI-1 renal = system: CAKI-1 renal
MDA-MB-468 breast = system: MDA-MB-468 breast
NCI-H226 lung = system: NCI-H226 lung
HT29 colon = system: HT29 colon
A498 renal = system: A498 renal

## CCC[C@H](N[C@@H]1CCc2cc(F)cc(F)c2C1)C(=O)Nc1cn(C(C)(C)CNCC(C)(C)C)cn1
DU-145 prostate
  GI50: 17.2 µM
  TGI: 48.8 µM
HS 578T breast
  GI50: 12.3 µM
  TGI: 25.1 µM
SF-539 CNS
  GI50: 16.5 µM
  TGI: 30.3 µM
HCT-15 colon
  GI50: 8.15 µM
  TGI: 21.3 µM
T-47D breast
  GI50: 2.11 µM
  TGI: 17 µM
HOP-62 NSCLC
  GI50: 15.6 µM
  TGI: 30.1 µM
SW-620 colon
  GI50: 16.2 µM
  TGI: 32.2 µM
COLO 205 colon
  GI50: 13.1 µM
  TGI: 36.1 µM
BT-549 breast
  GI50: 9.95 µM
  TGI: 22.1 µM
CCRF-CEM leukemia
  GI50: 7.5 µM
  TGI: 21 µM
NCI-H23 lung
  GI50: 11.9 µM
  TGI: 26 µM
NCI-H322M lung
  GI50: 20.8 µM
  TGI: 55.4 µM
IGROV1 ovarian
  GI50: 17.3 µM
  TGI: 44.6 µM
RPMI-8226 leukemia
  GI50: 0.358 µM
  TGI: 11.2 µM
SK-OV-3 ovarian
  GI50: 14.2 µM
  TGI: 29.5 µM
UO-31 renal
  GI50: 14.6 µM
  TGI: 28.5 µM
LOX IMVI melanoma
  GI50: 17.8 µM
  TGI: 31.9 µM
MCF7 breast
  GI50: 5.11 µM
  TGI: 19.8 µM
UACC-257 melanoma
  GI50: 0.535 µM
  TGI: 18.4 µM
SK-MEL-5 melanoma
  GI50: 11.2 µM
  TGI: 23.4 µM
KM12 colon
  GI50: 14.6 µM
  TGI: 29.8 µM
RXF 393 renal
  GI50: 10.7 µM
  TGI: 24.1 µM
SF-295 CNS
  GI50: 13.8 µM
  TGI: 26.9 µM
MDA-MB-231 breast
  GI50: 12.3 µM
  TGI: 27.1 µM
SNB-19 CNS
  GI50: 16.8 µM
  TGI: 39.7 µM
OVCAR-4 ovarian
  GI50: 1.09 µM
  TGI: 35.9 µM
PC-3 prostate
  GI50: 7.53 µM
  TGI: 21.4 µM
OVCAR-5 ovarian
  GI50: 19.7 µM
  TGI: 49.4 µM
MDA-MB-435 melanoma
  GI50: 16.6 µM
  TGI: 35.1 µM
NCI/ADR-RES ovarian
  GI50: 10.9 µM
  TGI: 24.3 µM
786-0 renal
  GI50: 13.4 µM
  TGI: 26.5 µM
UACC-62 melanoma
  GI50: 15.7 µM
  TGI: 29.3 µM
NCI-H522 lung
  GI50: 13.2 µM
  TGI: 28.8 µM
A549 NSCLC
  GI50: 13.9 µM
  TGI: 46.8 µM
SNB-75 CNS
  GI50: 15.8 µM
  TGI: 42.8 µM
SN12C renal
  GI50: 19.4 µM
  TGI: 42.9 µM
HL-60(TB) leukemia
  GI50: 2.77 µM
  TGI: 14.5 µM
EKVX NSCLC
  GI50: 14.5 µM
  TGI: 44.7 µM
U251 glioblastoma
  GI50: 15.5 µM
  TGI: 29.3 µM
MALME-3M melanoma
  GI50: 2.14 µM
  TGI: 12.2 µM
SK-MEL-28 melanoma
  GI50: 12.7 µM
  TGI: 25.9 µM
MOLT-4 leukemia
  GI50: 4.04 µM
  TGI: 15.2 µM
NCI-H460 NSCLC
  GI50: 14.9 µM
  TGI: 28.9 µM
TK-10 renal
  GI50: 16 µM
  TGI: 46 µM
HCC-2998 colon
  GI50: 6.98 µM
  TGI: 19.9 µM
K-562 leukemia
  GI50: 10.6 µM
  TGI: 22.8 µM
HOP-92 NSCLC
  GI50: 11.7 µM
  TGI: 24.1 µM
OVCAR-8 ovarian
  GI50: 16.1 µM
  TGI: 36.5 µM
ACHN renal
  GI50: 15.4 µM
  TGI: 35.2 µM
SF-268 CNS
  GI50: 15.3 µM
  TGI: 31.3 µM
SR leukemia
  GI50: 4.2 µM
  TGI: 16.2 µM
M14 melanoma
  GI50: 13.8 µM
  TGI: 27 µM
CAKI-1 renal
  GI50: 14.4 µM
  TGI: 29.5 µM
MDA-MB-468 breast
  TGI: 1.75 µM
NCI-H226 lung
  GI50: 13.8 µM
  TGI: 28.3 µM
HT29 colon
  GI50: 11 µM
  TGI: 23.7 µM
A498 renal
  GI50: 10.5 µM
  TGI: 22.8 µM
